Measured values as given in ChEMBL document CHEMBL5518166, “Exploring thienothiadiazine dioxides as isosteric analogues of benzo- and pyridothiadiazine dioxides in the search of new AMPA and kainate receptor positive allosteric modulators” (Eur J Med Chem, 2024).
Calls of active or inactive are those of the source. The rule behind the calls is not given here.

Legend:
[1] = molecular target: T1, Glutamate receptor ionotropic, AMPA (Rattus norvegicus) (UniProt P19491+P19492+P19493+P19490); assay: Positive allosteric modulation at AMPAR in rat Primary embryonic cortical cell assessed as concentration required for 2 fold increase in AMPA induced fluorescence by FDSS fluorescence assay; type: cell-based; conditions: Cerebral cortex cell, filed as positive allosteric modulator
[2] = molecular target: Glutamate receptor ionotropic AMPA (Homo sapiens, UniProt P42261+P42262+P42263+P48058); assay: Positive allosteric modulation at AMPAR in HEK293 cells expressing GluA2Qi subunit assessed as glutamate induced calcium influx; type: cell-based
[3] = molecular target: T1, Glutamate receptor ionotropic, AMPA (Rattus norvegicus); assay: Positive allosteric modulation at AMPAR in rat Primary embryonic cortical cell assessed as concentration required for 2 fold increase in AMPA induced fluorescence by FlipR assay; type: cell-based; conditions: filed as positive allosteric modulator
[4] = molecular target: Glutamate receptor ionotropic AMPA (Homo sapiens) (UniProt P48058+P42263+P42262+P42261); assay: Positive allosteric modulation at AMPAR in HEK293 cells expressing GluA2 assessed as glutamate induced calcium influx by measuring efficacy relative to control; type: cell-based; conditions: filed as positive allosteric modulator
[5] = molecular target: T1, Glutamate receptor ionotropic, AMPA (Rattus norvegicus); assay: Positive allosteric modulation at AMPAR in rat Primary embryonic cortical cell assessed as concentration required for 2 fold increase in AMPA induced fluorescence; type: cell-based; conditions: filed as positive allosteric modulator
[6] = Toxicity in NMR1 mouse assessed as pro-convulsant effect at 100 mg/kg measured upto 180 mins; type: organism-based; conditions: in vivo, 3 h
[7] = Toxicity in NMR1 mouse assessed as effect on hypothermia at 100 mg/kg measured upto 180 mins; type: organism-based; conditions: in vivo, 3 h
[8] = system: Rattus norvegicus; assay: Cognition enhancing effect in Wistar rat assessed as increase in amplitude of initial post-synaptic response at 30 mg/kg, ip pretreated for 1 hr followed by tetanic stimulation and measured for 3 hrs; type: functional, organism-based; conditions: time 4.0 hrs
[9] = system: Mus musculus; assay: Cognition enhancing effect in CD1 mouse assessed as increase in exploration time spent on new object at 1 mg/kg, po measured after 1 hr by object recognition test (reference value: 35%); type: functional
[10] = system: Mus musculus; assay: Cognition enhancing effect in CD1 mouse assessed as increase in exploration time spent on new object at 3 mg/kg, po measured after 1 hr by object recognition test (reference value: 35%); type: functional
[11] = molecular target: Glutamate receptor ionotropic kainate 1 (Homo sapiens) (UniProt P39086); assay: Positive allosteric modulation at kainate receptor in HEK293 cells expressing GluK1-Q1b assessed as glutamate induced calcium influx by measuring efficacy relative to control; conditions: filed as positive allosteric modulator
Sequence of Glutamate receptor ionotropic kainate 1 (Homo sapiens) (P39086 whole entry, looked up): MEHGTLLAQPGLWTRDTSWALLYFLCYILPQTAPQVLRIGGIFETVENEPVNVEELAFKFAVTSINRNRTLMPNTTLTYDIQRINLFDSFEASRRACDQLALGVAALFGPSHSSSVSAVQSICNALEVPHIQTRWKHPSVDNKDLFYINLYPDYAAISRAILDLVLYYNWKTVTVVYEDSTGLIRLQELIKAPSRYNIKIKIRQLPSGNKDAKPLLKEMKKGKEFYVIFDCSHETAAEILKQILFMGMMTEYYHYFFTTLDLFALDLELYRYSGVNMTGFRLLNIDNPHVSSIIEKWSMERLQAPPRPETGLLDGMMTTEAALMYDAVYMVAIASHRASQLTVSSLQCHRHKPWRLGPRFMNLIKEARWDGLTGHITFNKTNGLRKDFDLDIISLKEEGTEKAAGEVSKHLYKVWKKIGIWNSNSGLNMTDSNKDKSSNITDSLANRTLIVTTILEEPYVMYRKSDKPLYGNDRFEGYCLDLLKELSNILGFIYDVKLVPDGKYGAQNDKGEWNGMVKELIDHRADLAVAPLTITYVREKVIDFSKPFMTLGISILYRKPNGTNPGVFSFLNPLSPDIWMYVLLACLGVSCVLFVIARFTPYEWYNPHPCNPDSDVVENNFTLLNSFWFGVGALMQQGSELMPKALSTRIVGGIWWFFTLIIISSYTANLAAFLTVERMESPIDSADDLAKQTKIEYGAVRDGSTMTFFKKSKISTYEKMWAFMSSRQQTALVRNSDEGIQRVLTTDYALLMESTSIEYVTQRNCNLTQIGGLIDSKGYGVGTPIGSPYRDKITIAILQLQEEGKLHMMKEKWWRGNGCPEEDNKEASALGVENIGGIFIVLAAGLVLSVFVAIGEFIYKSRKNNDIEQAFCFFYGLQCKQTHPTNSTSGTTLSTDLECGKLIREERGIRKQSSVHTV

[12] = molecular target: Glutamate receptor ionotropic kainate 2 (Homo sapiens) (UniProt Q13002); assay: Positive allosteric modulation at kainate receptor in HEK293 cells expressing GluK2-Q2a assessed as glutamate induced calcium influx by measuring efficacy relative to control; conditions: filed as positive allosteric modulator
Sequence of Glutamate receptor ionotropic kainate 2 (Homo sapiens) (Q13002 whole entry, looked up): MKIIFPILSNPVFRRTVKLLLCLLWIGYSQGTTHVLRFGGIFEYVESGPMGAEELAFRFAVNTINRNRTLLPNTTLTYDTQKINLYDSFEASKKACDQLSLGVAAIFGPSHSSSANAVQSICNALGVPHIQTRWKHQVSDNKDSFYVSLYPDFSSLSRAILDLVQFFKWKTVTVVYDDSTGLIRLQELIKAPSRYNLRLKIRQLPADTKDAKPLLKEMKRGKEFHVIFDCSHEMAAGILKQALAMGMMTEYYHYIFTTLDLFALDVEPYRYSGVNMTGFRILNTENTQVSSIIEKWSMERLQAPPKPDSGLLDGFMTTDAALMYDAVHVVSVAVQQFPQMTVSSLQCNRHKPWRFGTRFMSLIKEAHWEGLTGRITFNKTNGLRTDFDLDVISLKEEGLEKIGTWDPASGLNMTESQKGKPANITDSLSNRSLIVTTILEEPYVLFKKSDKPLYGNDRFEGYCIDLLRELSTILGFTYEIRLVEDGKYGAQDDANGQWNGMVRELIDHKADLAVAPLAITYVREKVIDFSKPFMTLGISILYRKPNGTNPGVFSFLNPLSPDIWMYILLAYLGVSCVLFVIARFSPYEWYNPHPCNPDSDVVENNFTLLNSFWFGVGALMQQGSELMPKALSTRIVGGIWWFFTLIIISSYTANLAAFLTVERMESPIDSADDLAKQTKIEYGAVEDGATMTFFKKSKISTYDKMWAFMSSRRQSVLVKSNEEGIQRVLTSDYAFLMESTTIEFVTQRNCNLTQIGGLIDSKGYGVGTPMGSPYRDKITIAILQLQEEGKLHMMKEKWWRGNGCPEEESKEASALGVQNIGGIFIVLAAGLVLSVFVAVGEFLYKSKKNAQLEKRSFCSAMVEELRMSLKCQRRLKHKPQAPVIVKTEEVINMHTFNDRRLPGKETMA

[13] = Toxicity in NMR1 mouse assessed as effect on hypothermia at 30 mg/kg measured upto 180 mins; type: organism-based; conditions: in vivo, 3 h
[14] = molecular target: T1, Glutamate receptor ionotropic, AMPA (Rattus norvegicus); assay: Positive allosteric modulation of rat cortex AMPAR expressed in xenopus oocytes assessed as concentration required for 2 fold increase in AMPA induced […]; type: cell-based; conditions: Oocyte, filed as positive allosteric modulator

Row | EC50 [2] | EC [3] | Efficacy [11] | Efficacy [12] | SMILES | other results
1 | 39.9 µM | – | – | – | CN1CN(CC(F)F)c2cc(Cl)sc2S1(=O)=O | EC [1]: 24.5 µM
2 | 76.5 µM | 80.4 µM | – | – | C=CCN1CN(C)S(=O)(=O)c2sc(Cl)cc21 | –
3 | – | – | – | – | O=S1(=O)NCN(C2CC2)c2ccc(F)cc21 | Activity [4]: 100%; EC [5]: 0.27 µM
4 | > 100 µM | 40.1 µM | – | – | CN1C2CCCN2c2cc(Cl)sc2S1(=O)=O (centres undefined) | –
5 | – | – | – | – | O=S1(=O)NC2CCCN2c2cc(Cl)sc21 (centres undefined) | Activity [6]: Non-Toxic; Activity [7]: Non-Toxic; Activity [8]: Active; Activity [9]: 82%; Activity [10]: 69%
6 | 24.6 µM | 6.4 µM | 50% | 60% | CCN1c2cc(Cl)sc2S(=O)(=O)N(C)C1C (centres undefined) | –
7 | 4.7 µM | – | 50% | 80% | O=S1(=O)NCN(C2CC2)c2cc(Cl)sc21 | EC [1]: 0.24 µM; Activity [13]: Toxic; Activity [4]: 126%
8 | – | – | – | – | O=S1(=O)CCC(C2CC2)c2ccc(F)cc21 (centres undefined) | EC [5]: 2.2 µM
9 | 31.5 µM | – | 50% | 60% | CC1N(CC(F)F)c2cc(Cl)sc2S(=O)(=O)N1C (centres undefined) | EC [1]: 1.2 µM
10 | – | – | – | – | O=S1(=O)N[C@H]2CCCN2C2CCCCC21 (some centres undefined) | EC [14]: 24.6 µM
11 | 26.9 µM | 18.5 µM | 112% | 80% | C=CCN1CNS(=O)(=O)c2sc(Cl)cc21 | Activity [4]: 126%
